The text below walks through data of ChEMBL document CHEMBL3886609, “Piperidylpyrimidine derivatives as modulators of protein kinase inhibitors and of vascular endothelial growth factor receptor 2” (2016).

For this test, the target named is Vascular endothelial growth factor receptor 2 (Homo sapiens, UniProt P35968). Put plainly: VEGFR2 Kinase Assay: Biochemical KDR kinase assays were performed in 96 well microtiter plates that were coated overnight with 75 ug/well of poly-Glu-Tyr (4:1) in 10 mM Phosphate Buffered Saline (PBS), pH 7.4. The coated plates were washed with 2 mls per well PBS+0.05% Tween-20 (PBS-T), blocked by incubation with PBS containing 1% BSA, then washed with 2 mls per well PBS-T prior to starting the reaction. Reactions were carried out in 100 uL reaction volumes containing 2.7 uM ATP in kinase buffer (50 mM Hepes buffer pH 7.4, 20 mM MgCl2, 0.1 mM MnCl2 and 0.2 mM Na3VO4). Test compounds were reconstituted in 100% DMSO and added to the reaction to give a final DMSO concentration of 5%. Reactions were initiated by the addition 20 ul per well of kinase buffer containing 200-300 ng purified cytoplasmic domain KDR protein (BPS Bioscience, San Diego, Calif.). Following a 15 minute incubation at 30° C., the reactions were washed 2 mls per well PBS-T. 100 ul of a monoclonal anti-phosphotyrosine antibody-peroxidase conjugate diluted 1:10,000 in PBS-T was added to the wells for 30 minutes. Following a 2 mls per well wash with PBS-Tween-20, 100 ul of 0-Phenylenediamine Dihydrochloride in phosphate-citrate buffer, containing urea hydrogen peroxide, was added to the wells for 7-10 minutes as a colorimetric substrate for the peroxidase. […].
Sequence of Vascular endothelial growth factor receptor 2 (P35968 whole entry): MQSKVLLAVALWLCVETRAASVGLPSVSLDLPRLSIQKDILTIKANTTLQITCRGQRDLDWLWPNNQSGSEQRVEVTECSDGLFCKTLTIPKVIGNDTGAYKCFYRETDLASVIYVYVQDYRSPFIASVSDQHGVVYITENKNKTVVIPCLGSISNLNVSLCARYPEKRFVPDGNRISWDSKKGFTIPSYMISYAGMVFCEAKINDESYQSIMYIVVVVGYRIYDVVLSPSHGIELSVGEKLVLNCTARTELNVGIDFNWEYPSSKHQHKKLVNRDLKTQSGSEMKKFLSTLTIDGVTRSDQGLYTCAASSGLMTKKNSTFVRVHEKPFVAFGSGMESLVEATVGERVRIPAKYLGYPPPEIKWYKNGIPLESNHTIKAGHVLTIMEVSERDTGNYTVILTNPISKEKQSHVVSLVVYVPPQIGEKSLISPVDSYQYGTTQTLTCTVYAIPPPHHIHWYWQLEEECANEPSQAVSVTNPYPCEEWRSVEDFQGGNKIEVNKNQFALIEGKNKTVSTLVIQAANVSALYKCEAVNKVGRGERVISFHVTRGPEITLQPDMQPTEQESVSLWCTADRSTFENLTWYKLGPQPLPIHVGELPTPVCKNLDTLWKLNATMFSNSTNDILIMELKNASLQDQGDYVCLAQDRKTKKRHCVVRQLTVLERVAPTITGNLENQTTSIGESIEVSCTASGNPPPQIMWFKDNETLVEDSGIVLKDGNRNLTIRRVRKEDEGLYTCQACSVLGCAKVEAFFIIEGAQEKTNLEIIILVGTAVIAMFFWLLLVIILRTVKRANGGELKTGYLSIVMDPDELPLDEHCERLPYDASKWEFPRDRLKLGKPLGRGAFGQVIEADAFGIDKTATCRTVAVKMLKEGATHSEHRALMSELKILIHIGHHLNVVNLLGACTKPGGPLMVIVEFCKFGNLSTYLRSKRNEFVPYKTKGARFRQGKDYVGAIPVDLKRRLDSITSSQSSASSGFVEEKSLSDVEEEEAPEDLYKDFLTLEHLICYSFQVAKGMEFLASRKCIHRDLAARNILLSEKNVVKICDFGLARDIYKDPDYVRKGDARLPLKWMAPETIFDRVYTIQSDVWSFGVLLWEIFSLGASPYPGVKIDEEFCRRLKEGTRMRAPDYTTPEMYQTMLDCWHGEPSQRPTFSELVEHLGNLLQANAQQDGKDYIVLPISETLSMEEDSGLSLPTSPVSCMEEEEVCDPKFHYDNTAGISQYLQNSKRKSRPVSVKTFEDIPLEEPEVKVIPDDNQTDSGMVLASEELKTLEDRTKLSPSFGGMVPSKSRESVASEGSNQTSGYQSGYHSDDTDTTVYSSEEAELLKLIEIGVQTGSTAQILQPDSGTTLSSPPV

A word on the IC50: it is the concentration at which inhibition is half-maximal. High values mean a need for much substance, low ones inhibition by little substance. For the compound `O=C(c1cccnc1)N1CCc2nc(Nc3ccsc3)ncc2C1`, the midpoint of inhibition, the IC50, lay at 11 nM.
